Experimental data as given in publication PMC6259134, “Synthesis, Antimycobacterial, Antifungal and Photosynthesis-Inhibiting Activity of Chlorinated N-phenylpyrazine-2-carboxamides” (Molecules, 2010).
Values after ≈ are worked out from the molar mass of the structure shown. Values joined by “and” are separate entries in the source; they are usually repeats but may differ in a detail not shown here. Identical values can stand only once. Like-named read-outs stand apart in the source and are kept apart here.

Key:
[1] = test system: M. tuberculosis H37Rv; conditions: cited from earlier work
[2] = Lipophilicity determination by RP-HPLC (capacity factor k / log k, distributive π parameters); format: physicochemical; conditions: for log k: RP-HPLC, C18, MeOH 70%/H2O 30%, isocratic; for π determined Ph: distributive parameter of phenyl substituents; for π determined Ph / π determined Pyr: calculated from log k; for π determined Pyr: distributive parameter of pyrazine substituents
Procedure: The procedure was performed under isocratic conditions with methanol as an organic modifier in the mobile phase using an end-capped non-polar C18 stationary RP column. The results are shown in Table 1 and illustrated in Figure 2. Waters Alliance 2695 XE HPLC separation module and Waters Photodiode Array Detector 2996 (Waters Corp., Milford, MA, USA) were used. Waters Symmetry® C18 5 μm, 4.6 ° 250 mm, Part No. WAT054275 (Waters Corp., Milford, MA, USA) chromatographic column was used. The HPLC separation process was monitored by Empower™ 2 Chromatography Data Software, Waters 2009 (Waters Corp., Milford, MA, USA). The mixture of MeOH (HPLC grade, 70%) and H2O (HPLC–Mili-Q Grade, 30%) was used as a mobile phase. The total flow rate of the column was 1.0 mL/min, injection volume 30 μL, column temperature 30 °C and sample temperature 10 °C were used. The detection wavelength of 210 nm was chosen. The KI methanolic solution was used for the dead time (tD) determination. Retention times (tR) were measured in minutes. The capacity factors k were calculated using the Empower™ 2 Chromatography Data Software according to formula k = (tR - tD)/tD, where tR is the retention time of the solute, whereas tD denotes the dead time obtained using an unretained analyte. Log k, calculated from the capacity factor k, is used as the lipophilicity index converted to log P scale. Distributive π parameters characterizing lipophilicity of the individual substituents were calculated according to the formula π = log kS – log kU, where log kS is the determined capacity factor logarithm of the individual substituted compounds, whereas log kU denotes the determined capacity factor logarithm of the unsubstituted compound, it means π = 0.

[3] = set-up: method as in PMID 1151976, doi:10.1002/9780470171912.ch3; conditions: Hammett's constant of R3 phenyl substituent; cited from earlier work
[4] = test system: Trichophyton mentagrophytes 445; experiment: In vitro antifungal susceptibility testing (microdilution broth method); format: cell-based; conditions: T. mentagrophytes; for MIC: Trichophyton mentagrophytes, 445
[5] = test system: M. tuberculosis H37Rv (ATCC27294); experiment: In vitro antimycobacterial primary screening (TAACF, BACTEC 460 / MABA); format: cell-based; conditions: Mycobacterium tuberculosis, read-out: Antimycobacterial evaluation Inhibition
Procedure: All compounds were assayed in vitro against M. tuberculosis H37Rv. […] None of the tested derivatives overcame this limit, see Table 2.
Antimycobacterial evaluation was carried out in the tuberculosis antimicrobial acquisition and coordinating facility (TAACF), Southern Research Institute, Birmingham, AL, U.S.A., which is a part of the National Institutes of Health (NIH). Primary screening of all compounds was conducted at 6.25 µg/mL against M. tuberculosis H37Rv (ATCC27294) in BACTEC 12B medium using both BACTEC 460 radiometric system and the Microplate Alamar Blue Assay (MABA). For the results see Table 2.

[6] = test system: photosynthetic electron transport (PET) in spinach chloroplasts; experiment: Inhibition of photosynthetic electron transport (PET) in spinach chloroplasts (DCPIP photoreduction); format: biochemical, Spinacia oleracea L.
Procedure: The activity of the majority of the studied compounds was moderate or low relative to the standard. Chloroplasts were prepared from spinach (Spinacia oleracea L.) according to Masarovičová and Kráľová [26]. […] [27], and the rate of photosynthetic electron transport was monitored as a photoreduction of DCPIP. The measurements were carried out in phosphate buffer (0.02 mol/L, pH 7.2) containing sucrose (0.4 mol/L), MgCl2 (0.005 mol/L) and NaCl (0.015 mol/L). The chlorophyll content was 30 mg/L in these experiments and the samples were irradiated (~100 W/m^2) from 10 cm distance with a halogen lamp (250 W) using a 4 cm water filter to prevent warming of the samples (suspension temperature 22 °C). The studied compounds were dissolved in DMSO due to their limited water solubility. […] The inhibitory efficiency of the studied compounds was manifested by IC50 values, i.e. by molar concentration of the compounds causing 50% decrease in the […] relative to the untreated control.

[7] = test system: photosynthetic electron transport (PET) in spinach chloroplasts; set-up: method as in earlier work; conditions: standard, read-out: PET inhibition IC50; cited from earlier work
[8] = after 72 h, MIC for moulds determined as IC50 value, read-out: Antifungal susceptibility MIC
[9] = after 120 h, MIC for moulds determined as IC50 value, read-out: Antifungal susceptibility MIC

| Compound | MIC [1] [µg/mL] | log k [2] | π determined Ph [2] | π determined Pyr [2] | σ [3] | MIC [4, 8] [µM] | MIC [4, 9] [µM] | inhibition at 6.25 µg/mL [5] [%] | IC50 [6] [µM] | MIC ([4]; incubation time not given, read-out: MIC) [µM] | IC50 [7] | Antifungal susceptibility MIC ([4]; after 120 h, MIC for moulds determined as IC50 value) [µM] |
| --- | --- | --- | --- | --- | --- | --- | --- | --- | --- | --- | --- | --- |
| CC(C)(C)c1ncc(C(=O)Nc2cccc(C(F)(F)F)c2)nc1Cl [5-tert-butyl-6-chloro-N-(3-trifluoromethylphenyl)pyrazine-2-carboxamide] | 3.13 to 6.25 |  |  |  |  |  |  |  |  |  |  |  |
| O=C(Nc1cccc(Cl)c1)c1cnccn1 [Compound 1, Pyrazine-2-carboxylic acid (3-chlorophenyl)amide] |  | 0.4914 | 0.08 | 0.00 | 0.373 | 500 (≈ 117 µg/mL) | > 500 | 14 | 290 |  |  |  |
| O=C(Nc1cccc(Cl)c1)c1cncc(Cl)n1 [Compound 2, 6-Chloropyrazine-2-carboxylic acid (3-chlorophenyl)amide] |  | 0.7864 | 0.10 | 0.30 | 0.373 | 125 (≈ 33.5 µg/mL) | 125 (≈ 33.5 µg/mL) | 14 | 262 |  |  |  |
| CC(C)(C)c1cnc(C(=O)Nc2cccc(Cl)c2)cn1 [Compound 3, 5-tert-Butylpyrazine-2-carboxylic acid (3-chlorophenyl)amide] |  | 1.0996 |  |  | 0.373 | > 250 | > 250 | 0 | 95.5 |  |  |  |
| CC(C)(C)c1ncc(C(=O)Nc2cccc(Cl)c2)nc1Cl [Compound 4, 5-tert-Butyl-6-chloropyrazine-2-carboxylic acid (3-chlorophenyl)amide] |  | 1.4896 | 0.25 | 1.00 | 0.373 | > 250 | > 250 | 0 | 101 |  |  |  |
| O=C(Nc1ccc(Cl)cc1)c1cnccn1 [Compound 5] |  | 0.4987 | 0.09 | 0.00 | 0.227 | > 250 | > 250 | 4 | 1520 |  |  |  |
| O=C(Nc1ccc(Cl)cc1)c1cncc(Cl)n1 [Compound 6, 6-chloro-N-(4-chlorophenyl)pyrazine-2-carboxamide] |  | 0.8185 | 0.13 | 0.32 | 0.227 | > 500 | > 500 | 65 | 486 |  |  |  |
| CC(C)(C)c1cnc(C(=O)Nc2ccc(Cl)cc2)cn1 [Compound 7] |  | 1.1043 | 0.16 | 0.61 | 0.227 | > 250 | > 250 | 0 |  |  |  |  |
| CC(C)(C)c1ncc(C(=O)Nc2ccc(Cl)cc2)nc1Cl [Compound 8, 6-chloro-5-tert-butyl-N-(4-chlorophenyl)pyrazine-2-carboxamide] |  | 1.5015 | 0.26 | 1.00 | 0.227 | > 250 | > 250 | 24 | 43 |  |  |  |
| O=C(Nc1c(Cl)cccc1Cl)c1cnccn1 [Compound 9, N-(2,6-dichlorophenyl)pyrazine-2-carboxamide] |  | 0.6656 | 0.25 | 0.00 | 0.40 | > 500 | > 500 | 0 |  |  |  |  |
| O=C(Nc1c(Cl)cccc1Cl)c1cncc(Cl)n1 [Compound 10, 6-Chloro-N-(2,6-dichlorophenyl)pyrazine-2-carboxamide] |  | 0.9456 |  |  | 0.40 | > 250 | > 250 | 0 | 829 |  |  |  |
| CC(C)(C)c1cnc(C(=O)Nc2c(Cl)cccc2Cl)cn1 [Compound 11, 5-tert-Butyl-N-(2,6-dichlorophenyl)pyrazine-2-carboxamide] |  | 1.2802 | 0.34 | 0.61 | 0.40 | 250 (≈ 81.1 µg/mL) | 250 (≈ 81.1 µg/mL) | 0 | 153 |  |  |  |
| CC(C)(C)c1ncc(C(=O)Nc2c(Cl)cccc2Cl)nc1Cl [Compound 12, 5-tert-Butyl-6-chloro-N-(2,6-dichlorophenyl)pyrazine-2-carboxamide] |  | 1.6631 | 0.42 | 1.00 | 0.40 | 125 (≈ 44.8 µg/mL) | 125 (≈ 44.8 µg/mL) | 0 | 61 |  |  |  |
| O=C(Nc1ccc(Cl)c(Cl)c1)c1cnccn1 [Compound 13] |  | 0.6962 | 0.30 | 0.00 | 0.60 | > 250 | > 250 | 8 |  |  |  |  |
| O=C(Nc1ccc(Cl)c(Cl)c1)c1cncc(Cl)n1 [Compound 14, 6-chloro-N-(3,4-dichlorophenyl)pyrazine-2-carboxamide] |  | 0.9950 | 0.31 | 0.28 | 0.60 | 125 (≈ 37.8 µg/mL) | 250 (≈ 75.6 µg/mL) | 61 | 105 |  |  |  |
| CC(C)(C)c1cnc(C(=O)Nc2ccc(Cl)c(Cl)c2)cn1 [Compound 15] |  | 1.3395 | 0.40 | 0.62 | 0.60 | 125 (≈ 40.5 µg/mL) | 125 (≈ 40.5 µg/mL) | 15 |  |  |  |  |
| CC(C)(C)c1ncc(C(=O)Nc2ccc(Cl)c(Cl)c2)nc1Cl [Compound 16, 6-chloro-5-tert-butyl-N-(3,4-dichlorophenyl)pyrazine-2-carboxamide] |  | 1.7563 | 0.51 | 1.04 | 0.60 | 62.5 (≈ 22.4 µg/mL) | 62.5 (≈ 22.4 µg/mL) | 0 | 130 | 62.5 (≈ 22.4 µg/mL) |  |  |
| CN(C)C(=O)Nc1ccc(Cl)c(Cl)c1 [DCMU, 3-(3,4-dichlorophenyl)-1,1-dimethylurea] |  |  |  |  |  |  |  |  |  |  | ~1.9 µM and 1.9 µM |  |
| OC(Cn1cncn1)(Cn1cncn1)c1ccc(F)cc1F [FLU, fluconazole, reference compound] |  |  |  |  |  | 1.95 (≈ 0.597 µg/mL) | 3.91 (≈ 1.2 µg/mL) |  |  |  |  | 3.91 |
| O=C(Nc1cccc(C(F)(F)F)c1)c1cnccn1 [N-(3-Trifluoromethylphenyl)pyrazine-2-carboxamide] | 3.13 to 6.25 |  |  |  |  |  |  |  |  |  |  |  |
| Cc1ccc(NC(=O)c2cnccn2)cc1I [N-(3-iodo-4-methylphenyl)pyrazine-2-carbox-amide] | 3.13 to 6.25 |  |  |  |  |  |  |  |  |  |  |  |
